# In PubChem BioAssay (NCI):
#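 Following 48 hours of exposure in 96-well plates, responses at five concentrations were used to interpolate endpoints linearly. GI50: concentration for 50% inhibition of growth. TGI: total growth inhibition.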
# Columns and labels:
# Experiment in all cases: DTP human tumour cell line panel, 48 h
# OVCAR-5 ovarian = system: OVCAR-5 ovarian
# NCI/ADR-RES ovarian = system: NCI/ADR-RES ovarian
# HL-60(TB) leukemia = system: HL-60(TB) leukemia
# UACC-62 melanoma = system: UACC-62 melanoma
# HOP-62 NSCLC = system: HOP-62 NSCLC
# CCRF-CEM leukemia = system: CCRF-CEM leukemia
# UACC-257 melanoma = system: UACC-257 melanoma
# KM12 colon = system: KM12 colon
# 786-0 renal = system: 786-0 renal
# DMS 114 small cell lung = system: DMS 114 small cell lung
# DLD-1 colon = system: DLD-1 colon
# SNB-78 CNS = system: SNB-78 CNS
Compound,GI50 (OVCAR-5 ovarian),TGI (OVCAR-5 ovarian),GI50 (NCI/ADR-RES ovarian),TGI (NCI/ADR-RES ovarian),GI50 (HL-60(TB) leukemia),TGI (HL-60(TB) leukemia),GI50 (UACC-62 melanoma),TGI (UACC-62 melanoma),GI50 (HOP-62 NSCLC),TGI (HOP-62 NSCLC),GI50 (CCRF-CEM leukemia),TGI (CCRF-CEM leukemia),GI50 (UACC-257 melanoma),TGI (UACC-257 melanoma),GI50 (KM12 colon),TGI (KM12 colon),TGI (786-0 renal),TGI (DMS 114 small cell lung),TGI (DLD-1 colon),TGI (SNB-78 CNS)
O=C1NN(C2=NNC3(C(=O)N2)c2ccccc2-c2ccccc23)C(c2ccccc2)=N/C1=C/c1ccc(O)cc1,> 150 µg/mL,> 150 µg/mL,50.9 µg/mL,> 150 µg/mL,51.7 µg/mL,> 150 µg/mL,33.5 µg/mL,92.2 µg/mL,39.9 µg/mL,138 µg/mL,46.4 µg/mL,> 150 µg/mL,113 µg/mL,> 150 µg/mL,28.6 µg/mL,57.6 µg/mL,–,–,–,–
O=C(N/N=C\c1cccc(O)c1)c1ccncc1,–,> 100 µM,–,> 100 µM,–,–,–,> 100 µM,–,> 100 µM,–,–,–,> 100 µM,–,> 100 µM,> 100 µM,–,–,–
Cc1nc2ccccc2n1C(=O)c1c(F)c(F)c(F)c(F)c1F,–,40.8 µM,–,42.4 µM,–,> 100 µM,–,44.1 µM,–,68.3 µM,–,> 100 µM,–,39.1 µM,–,14.7 µM,–,–,–,–
C=CC1(C)CCC2=C(CCC3C(C)(C(=O)OC)CCCC23C)C1=O (stereo not drawn),–,29.5 µM,–,–,–,55.2 µM,–,33.7 µM,–,31.3 µM,–,68 µM,–,55.9 µM,–,31.5 µM,–,32.7 µM,36.5 µM,80.1 µM
Cn1c(=O)c2[nH]c(CCCCC(=O)O)nc2n(C)c1=O,–,> 100 µM,–,> 100 µM,–,–,–,> 100 µM,–,> 100 µM,–,> 100 µM,–,> 100 µM,–,> 100 µM,> 100 µM,–,–,–
Clc1ccccc1/C=C/c1cscn1,–,> 100 µM,–,–,–,> 100 µM,–,> 100 µM,–,> 100 µM,–,> 100 µM,–,> 100 µM,–,> 100 µM,–,> 100 µM,> 100 µM,> 100 µM
CCOC(=O)CN=C1NNS(=O)(=O)c2ccccc21,–,> 100 µM,–,> 100 µM,–,> 100 µM,–,> 100 µM,–,> 100 µM,–,> 100 µM,–,> 100 µM,–,> 100 µM,> 100 µM,–,–,–
C=C(C)C(=O)OC1CCC2(C)C(CCC3C2CCC2(C)C(c4ccc(=O)oc4)CC4OC432)C1 (stereo not drawn),–,106 µM,–,26 µM,–,9.64 µM,–,17.2 µM,–,10.5 µM,–,15.3 µM,–,17.2 µM,–,24.3 µM,–,9.11 µM,7.38 µM,60.7 µM
CCOC(=O)C(O)(NC(=O)c1ccc(F)cc1)C(F)(F)F (stereo not drawn),–,> 100 µM,–,> 100 µM,–,> 100 µM,–,> 100 µM,–,> 100 µM,–,> 100 µM,–,> 100 µM,–,> 100 µM,–,–,–,–
Cc1cc(O)c(C(C)(C)C)cc1Sc1cc(C(C)(C)C)c(O)cc1C,1.93 µM,4 µM,2.78 µM,7.58 µM,2.6 µM,6.35 µM,1.32 µM,3.11 µM,2.11 µM,4.74 µM,2.95 µM,14.5 µM,2.28 µM,6.89 µM,2.24 µM,5.01 µM,–,–,–,–
